{"source": "patent US6248744A", "about": "“Method for the treatment of pain, including chronic and female specific pain” (priority 2000, dated 2001)", "key": {"rats and mice": {"system": "rats and mice", "conditions": "cited from earlier work"}, "[1]": {"system": "ganglionic nicotinic receptors", "conditions": "agonist of ganglionic nicotinic receptors; cited from earlier work"}, "animal studies": {"system": "animal studies", "conditions": "cited from earlier work"}, "[2]": {"system": "central nicotinic receptor subtypes", "conditions": "cited from earlier work"}, "[3]": {"system": "male and female Sprague Dawley rats", "experiment": "Intraplantar capsaicin mechanical hyperalgesia, hindpaw withdrawal threshold with von Frey filaments, intrathecal injection", "assay_type": "in vivo, rat", "conditions": "for average % reduction in withdrawal threshold over the 2 hours after capsaicin injection: % change from pre-capsaicin threshold, capsaicin 30 μg intraplantar, 50 μg i.t.", "method": "Adult male and female Sprague Dawley rats were prepared with insertion of intrathecal catheters as described above. Capsaicin (8-methyl-N-vanillyl nonamide) was prepared in a concentration of 30 μg in 10 μl. Briefly, capsaicin powder was first dissolved in Tween 80, then in isotonic saline and heated to 70° C. The solution obtained was filtered and stored in sterile glass vials. Each group of rats represents 6 males and 6 females tested at the same time and each animal received only one injection in the left plantar surface of the hindpaw. Each animal was lightly anesthetized under halothane and immediately after immobility, received intradermal capsaicin, 30 μg injected through a 28 G needle, in the center of the plantar surface. This dose was chosen because it produces mechanical hyperalgesia lasting at least 2 hours (Gilchrist, H. D., Allard, B. L., and Simone, D. A. Enhanced withdrawal responses to heat and mechanical stimuli following intraplantar injection of capsaicin in rats. Pain 1996;67: 179-188).\nHindpaw withdrawal thresholds were tested before capsaicin injection and every 30 minutes thereafter for 2 hours, using von Frey filaments and the up-down method described above. Care was taken to avoid direct contact of the injection point when measuring withdrawal threshold with the filaments. Intrathecal saline, or (E)-N-methyl-4-(3-pyridinyl)-3-butene-1-amine(50 μg) was injected prior to capsaicin.\nIntraplantar injection of capsaicin produced a rapid onset, sustained reduction in withdrawal threshold in both sexes. However, male and female control animals differed in withdrawal threshold at baseline and after capsaicin, and the sexes were therefore compared by % change from pre-capsaicin threshold. By this analysis, the average % reduction in withdrawal threshold over the 2 hours after capsaicin injection was 74+/-5.3% in females and 64+/-6.7% in males (p=0.47, NS)."}, "neuropathic rat hindlimb": {"system": "neuropathic rat hindlimb", "experiment": "Neuropathic pain model (injury of spinal nerves L5 and L6), allodynia measured with von Frey filaments, intrathecal injection", "assay_type": "in vivo", "conditions": "one week after nerve injury", "description": "Analgesic potency of compounds of the present invention can also be tested in animal models of neuropathic or neurogenic pain. One such model resembles the human condition termed causalgia or reflex sympathetic dystrophy (RSD) secondary to injury of a peripheral nerve. This condition is characterized by hyperesthesia (enhanced sensitivity to a natural stimulus), hyperalgesia (abnormal sensitivity to pain), allodynia (hypersensitivity and pain to normally non-painful stimuli, either thermal or tactile), and spontaneous burning pain. In humans, neuropathic pain tends to be chronic and may be debilitating.\nBriefly, in the model used, rats are subjected to a surgical procedure, described by Kim et al. (Kim, S. H. and Chung, J. M. (1992) Pain 50:355-363), designed to reproducibly injure peripheral nerves (spinal nerves L5 and L6). These rats develop a hyperesthetic state, which can be measured, using one or more paradigms known in the art. Here, allodynia was measured by stimulation of neuropathic rat hindlimb using nylon filaments having graded degrees of stiffness.\nSex differences in response to (E)-N-methyl-4-(3-pyridinyl)-3-butene-1-amine were tested using the assay described above. Hypersensitivity to light touch (withdrawal threshold to application of calibrated von Frey filaments) was documented one week later. […]"}, "[4]": {"system": "male and female Sprague Dawley rats", "experiment": "Latency to hindpaw withdrawal from a focused light heat source after intrathecal injection", "assay_type": "in vivo, rat", "conditions": "for maximum possible analgesic effect: radiant heat paw withdrawal", "method": "Trans-metanicotine was administered via intrathecal catheters inserted in male and female Sprague Dawley rats such that their tips were in the upper lumbar region. Analgesia was determined as an increase in the latency to withdrawal of the hindpaw from a focused light heat source. To prevent injury, duration of 30 seconds was not exceeded. The latency to paw withdrawal was determined both before and after intrathecal injection of trans-metanicotine in these rats, and the data were expressed as % maximum possible effect."}}}
{"molecule": "Clc1ccc(C2CC3CCC2N3)cn1", "note": "(stereo not drawn) [Epibatidine]", "values": [{"measurement": "analgesic potency relative to morphine", "setting": "rats and mice", "result": "three orders of magnitude higher than morphine"}, {"measurement": "cardiorespiratory effects", "setting": "[1]", "result": "cardiorespiratory effects similar to those of nicotine"}]}
{"molecule": "CNCC/C=C/c1cccnc1", "note": "[Metanicotine]", "values": [{"measurement": "antinociceptive effect", "setting": "animal studies", "result": "dose dependent antinociceptive effect"}, {"measurement": "selectivity for central nicotinic receptor subtypes compared to peripheral ganglionic and muscular nicotinic receptors", "setting": "[2]", "result": "high selectivity"}]}
{"molecule": "CNCC/C=C/c1cccnc1", "note": "[trans-metanicotine, (E)-N-methyl-4-(3-pyridinyl)-3-butene-1-amine]", "values": [{"measurement": "average % reduction in withdrawal threshold over the 2 hours after capsaicin injection", "setting": "[3]; female rats", "result": "74+/-5.3%"}, {"measurement": "analgesia in the capsaicin model, comparison of the sexes", "setting": "[3]; male and female rats, 50 μg i.t. prior to capsaicin", "result": "produced analgesia in this model of pain which was similar between the sexes"}, {"measurement": "average % reduction in withdrawal threshold over the 2 hours after capsaicin injection", "setting": "[3]; male rats", "result": "64+/-6.7%"}, {"measurement": "return of the level of sensitivity to presurgery levels (mean ±SEM)", "setting": "neuropathic rat hindlimb; female rats, intrathecal, 100 μg", "result": "50±4", "unit": "%"}, {"measurement": "effect on hypersensitivity to light touch (von Frey withdrawal threshold)", "setting": "neuropathic rat hindlimb; male rats, intrathecal injection", "result": "no effect"}, {"measurement": "maximum possible analgesic effect", "setting": "[4]; female rats, i.t. injection", "result": 45, "unit": "%"}, {"measurement": "antinociceptive response in females relative to males", "setting": "[4]; i.t. injection, females vs males", "result": "twice as great"}, {"measurement": "duration of the antinociceptive response", "setting": "[4]; male and female rats, i.t. injection", "result": "about 10 minutes"}, {"measurement": "effect at 60 μg compared with 20 μg (ceiling effect)", "setting": "[4]; male and female rats, i.t., 60 μg", "result": "failed to be more effective"}, {"measurement": "dose dependence of the effect on paw withdrawal latency to a radiant heat stimulus", "setting": "[4]; male and female rats, i.t., up to a dose of 20 μg", "result": "dose dependent inhibition of paw withdrawal latency"}, {"measurement": "maximum possible analgesic effect", "setting": "[4]; male rats, i.t. injection", "result": 20, "unit": "%"}]}
